“Also recorded” adds a separate entry of the source.
Tests used:
Assay type in all cases: in vivo
[1] = system: small clot embolic strokes in rabbits; experiment: rabbit small clot embolic stroke model (RSCEM), quantal analysis of behavior
From the text: The invention used a rabbit small clot embolic stroke model (RSCEM) that reproduces many facets of human AIS including a well-defined clinical endpoint. The RSCEM utilizes administration of a suspension of small blood clots to induce strokes, and behavioral deficits that can be measured quantitatively. Moreover, the RSCEM is useful to conduct studies testing the effects of single drugs or drug combinations such as a neuroprotective agent (e.g., NXY-059) plus a thrombolytic (Tenecteplase, Alteplase, Desmoteplase and the like). Since it is likely that a drug combination will be used for patient management it is important to determine whether there are any interactions (positive or negative) between the compounds when administered following embolic strokes.
Methods: Male New Zealand white rabbits were anesthetized using halothane (5% induction, 2% maintenance by facemask), the bifurcation of the right carotid artery was exposed and the external carotid was ligated just distal to the bifurcation, where a catheter was inserted into the common carotid and secured with ligatures. The incision was closed around the catheter with the distal ends left accessible outside the neck; the catheter was filled with heparinized saline and plugged with an injection cap. Rabbits were allowed to recover from anesthesia for a minimum of 3 h until they awoke and behaved normally.
For the RSCEM, microclots were prepared from blood drawn from a donor rabbit and allowed to clot at 37° C. All rabbits in the study received injections of the same sized microclots. For embolization, clot particles were rapidly injected through the carotid catheter and both the syringe and catheter were flushed with 5 ml of normal saline.
Treatment Regimens: (A) Dose-Response Curve: NXY-059 was administered IV at a dose of 0.1-100 mg/kg infused over 30 min beginning 1 hour following embolization. (B) Therapeutic Window: NXY-059 (100 mg/kg) was given beginning 1, 3 or 6 hours following embolization. (C) Tenecteplase Dosing: Tenecteplase was administered IV at a dose of 0.9 mg/kg as a bolus injection given over one minute was administered 1 or 6 hours following embolization. (D) Combination studies: NXY-059 was administered IV at a dose of 100 mg/kg infused over 30 min and Tenecteplase was administered IV at a dose of 0.9 mg/kg beginning 1 or 6 hours following embolization.
Quantal Dose-Response Analysis: For the RSCEM, a quantal dose-response data analysis technique was used. A wide range of lesion volumes is induced to generate both normal and abnormal animals. Using 3 or more different doses of microclots generated each quantal analysis curve. […] Each animal is rated as either normal or abnormal (including dead animals), and inter-rater variability is very low (<5%). […] With this simple rating system, the composite result for a group of animals is quite reproducible. The P50 values are then calculated. These parameters are measures of the amount of microclots (in mg) that produce neurologic dysfunction in 50% of a group of animals. A separate curve is generated for each treatment condition that was tested. The data were analyzed using the t-test, which included the Bonferroni correction where appropriate.
Using the RSCEM model as described above male New Zealand white rabbits weighing 2.2-2.6 Kg were anesthetized and a catheter was inserted into the common carotid artery through which microclots were injected. Briefly, the bifurcation of one carotid artery was exposed and the external carotid was ligated just distal to the bifurcation. A catheter was inserted into the common carotid and secured with ligatures. The incision was closed around the catheter so that the distal end was accessible outside the animal's neck. The catheter was then filled with heparinized saline and plugged with an injection cap. Rabbits were allowed to recover from anesthesia until they were awake and behaving normally. […]

[2] = system: small clot embolic strokes in rabbits; experiment: as above; conditions: for Observation: ABHS 25 mg/kg IV; for Abnorm / Norm: ABHS 25 mg/kg, 5 min
[3] = system: spinal cord ischemia induced by temporary occlusion of the infrarenal aorta; experiment: rabbit reversible spinal cord ischemia model (RSCIM)
Method: In a rabbit reversible spinal cord ischemia model (RSCIM). ABHS was administered (25 mg/kg) intravenously (i.v.) 5 or 30 min following the start of occlusion to groups of rabbits exposed to ischemia induced by temporary occlusion of the infrarenal aorta. The group P50 represents the duration of ischemia (min) associated with a 50% probability of resultant permanent paraplegia.

[4] = ABHS 25 mg/kg, 5 min, clot dose 0.38 mg

`CC12CC3CC(C)(C1)CC(N)(C3)C2` [memantine] was tested, and the “effect on efficacy of low-dose tPA” value ([1]; FIG. 8) was “increases the efficacy of low-dose tPA”.
For `CC(C)(C)[N+]([O-])=Cc1ccc(S(=O)(=O)O)cc1S(=O)(=O)O.[Na].[Na]` [NXY-059, disodium 2,4-disulfophenyl-N-tert-butylnitrone], the P50 ([1]; NXY-059 100 mg/kg, 6 hours following embolization, not significant vs vehicle) was 1.35 ± 0.37 mg, the “effect on P50 vs vehicle” value ([1]; NXY-059 doses from 1-100 mg/kg, 1 hour following embolization, p<0.05) was “significantly increased the P50” and the “effect on P50 vs vehicle” value ([1]; NXY-059 lower dose (0.10 mg/kg), 1 hour following embolization, p>0.05) was “did not”.
For `CC(=O)[C@H]1CC[C@H]2[C@@H]3CC[C@@H]4C[C@H](OC(=O)CCC(=O)O)CC[C@]4(C)[C@H]3CC[C@]12C` [ABHS, 3-alpha-ol-5-beta-pregnan-20-one hemisuccinate], the Observation ([2]; 5 min following embolization) was “Sedation”, the Observation ([2]; 180 min following embolization) was “Sedation” and the Abnorm ([2]; clot dose 0.53 mg) was 0. It also gave a Norm ([2]; clot dose 0.53 mg) of 1, an Abnorm ([2]; clot dose 1.42 mg) of 0 and a Norm ([2]; clot dose 1.42 mg) of 1. It also gave an Abnorm ([2]; clot dose 1.60 mg) of 0, a Norm ([2]; clot dose 1.60 mg) of 1 and an Abnorm ([2]; clot dose 1.72 mg) of 0. The Norm ([2]; clot dose 1.72 mg) was 1, the Norm ([2]; clot dose 1.99 mg) was 0 and the Norm ([2]; clot dose 2.21 mg) was 0. The Abnorm ([2]; clot dose 2.31 mg) was 0, the Norm ([2]; clot dose 2.31 mg) was 1 and the Abnorm ([2]; clot dose 2.89 mg) was 1. It also gave a Norm ([2]; clot dose 2.89 mg) of 0, an Abnorm ([2]; clot dose 2.97 mg) of 0 and an Abnorm ([2]; clot dose 3.38 mg) of 1. It also gave a Norm ([2]; clot dose 3.38 mg) of 0, an Abnorm ([2]; clot dose 3.88 mg) of 1 and a Norm ([2]; clot dose 3.88 mg) of 0. For the same molecule, the Norm ([2]; clot dose 4.35 mg) was 0, the Abnorm ([2]; clot dose 4.67 mg) was 0 and the Norm ([2]; clot dose 4.67 mg) was 1. For the same molecule, the “effect on tolerance to ischemia” value ([3]; ABHS administered 30 min following the start of occlusion) was “increased the tolerance to ischemia”, the “persistence of effect” value ([3]; ABHS injected 5 min following the start of ischemia and again 24 h after ischemia) was “persistent effect of the drug at 48 h” and the Observation ([1]; ABHS 25 mg/kg IV, 60 min following embolization) was “Sedation”. The “Abnorm (rabbits rated behaviorally abnormal)” value [1, 4] was 0, the “Norm (rabbits rated behaviorally normal)” value [1, 4] was 1 and the Abnorm ([1]; ABHS 25 mg/kg, 5 min, clot dose 1.99 mg) was 1. The Abnorm ([1]; ABHS 25 mg/kg, 5 min, clot dose 2.21 mg) was 1, the Norm ([1]; ABHS 25 mg/kg, 5 min, clot dose 2.97 mg) was 1 and the Abnorm ([1]; ABHS 25 mg/kg, 5 min, clot dose 4.35 mg) was 1. The “effect on therapeutic window of tPA” value ([1]; FIG. 7) was “increases the therapeutic window for tPA”.
In the case of Tenecteplase, the P50 ([1]; Tenecteplase 0.9 mg/kg IV bolus, 1 hour following embolization, 24 hours) is reported as 2.76 ± 0.37 mg, the “increase of P50 over control” value ([1]; Tenecteplase 0.9 mg/kg, 1 hour following embolization) is reported as 130% and the “effect on P50 vs control” value ([1]; Tenecteplase 0.9 mg/kg, 6 hours following embolization) is reported as “did not increase the P50 compared to control; also recorded: neither Tenecteplase, nor NXY-059, significantly (p>0.05) affect P50 values”.

Source: US20070167419A1, “TREATMENT FOR EMBOLIC STROKE” (priority 2005, published 2007)
